Measurements as given in US4073913A, “N^2 -arylsulfonyl-L-argininamides and the pharmaceutically acceptable salts thereof” (Mitsubishi Chemical Industries Limited, priority 1974, dated 1978).
Non-standard residues stand in square brackets, D forms with d. Residues, ends and D or L forms follow the SMILES beside them. ξ: configuration not given here. *: point of attachment. Dansyl = CN(C)c1cccc2c(S(=O)(=O)*)cccc12; ξPip = O=C(O)C1CCCCN1

Biological target: T1, thrombin (Bos taurus, UniProt P00735)
T1 construct: clotting of bovine fibrinogen
Experiment: fibrinogen coagulation time (concentration required to prolong the coagulation time by a factor of two)
Assay type: biochemical
Conditions: bovine fibrinogen, thrombin 5 units/ml, borate saline buffer pH 7.4, 25° C; control 50-55 seconds prolonged to 100-110 seconds
Procedure: The measurement of the fibrinogen coagulation time was conducted as follows:
Immediately after mixing, the reaction mixture was transferred from the ice bath to a bath maintained at 25° C. Coagulation times were taken as the period between the time of transference to the 25° C bath and the time of the first appearance of fibrin threads. […] The term "concentration required to prolong the coagulation time by a factor of two" is the concentration of an active ingredient required to prolong the normal coagulation time 50-55 seconds to 100-110 seconds.

| Compound | IC (2-fold clotting time) |
| --- | --- |
| CCCN(CC(=O)O)C(=O)[C@H](CCCNC(=N)N)NS(=O)(=O)c1ccc2cc(OC)c(OC)cc2c1 [compound 1] | 8 µM |
| COc1cc2ccc(S(=O)(=O)N[C@@H](CCCNC(=N)N)C(=O)N(CC(=O)O)CC(C)C)cc2cc1OC [compound 5] | 2 µM |
| CCCCCN(CC(=O)O)C(=O)[C@H](CCCNC(=N)N)NS(=O)(=O)c1ccc2cc(OC)c(OC)cc2c1 [compound 7] | 5 µM |
| CCCCCCN(CC(=O)O)C(=O)[C@H](CCCNC(=N)N)NS(=O)(=O)c1ccc2cc(OC)c(OC)cc2c1 [compound 9] | 1.5 µM |
| COCCN(CC(=O)O)C(=O)[C@H](CCCNC(=N)N)NS(=O)(=O)c1ccc2cc(OC)c(OC)cc2c1 [compound 13] | 0.5 µM |
| CCOC(=O)CN(CCOC)C(=O)[C@H](CCCNC(=N)N)NS(=O)(=O)c1ccc2cc(OC)c(OC)cc2c1 [compound 14] | 1.5 µM |
| COCCN(CCCC(=O)O)C(=O)[C@H](CCCNC(=N)N)NS(=O)(=O)c1ccc2cc(OC)c(OC)cc2c1 [compound 17] | 2.5 µM |
| COCCCN(CC(=O)O)C(=O)[C@H](CCCNC(=N)N)NS(=O)(=O)c1ccc2cc(OC)c(OC)cc2c1 [compound 19] | 5 µM |
| CCOCCN(CCC(=O)O)C(=O)[C@H](CCCNC(=N)N)NS(=O)(=O)c1ccc2cc(OC)c(OC)cc2c1 [compound 21] | 4 µM |
| COCCN(CC(=O)O)C(=O)[C@H](CCCNC(=N)N)NS(=O)(=O)c1cc(OC)c2cc(OC)ccc2c1 [compound 23] | 4 µM |
| CCCCN(CC(=O)O)C(=O)[C@H](CCCNC(=N)N)NS(=O)(=O)c1cc(OC)c2cc(OC)ccc2c1 [compound 25] | 2 µM |
| CCOc1cc2ccc(S(=O)(=O)N[C@@H](CCCNC(=N)N)C(=O)N(CCOC)CC(=O)O)cc2cc1OCC [compound 27] | 15 µM |
| CCCCN(CC(=O)O)C(=O)[C@H](CCCNC(=N)N)NS(=O)(=O)c1ccc2cc(OC)ccc2c1 [compound 31] | 0.5 µM |
| COCCN(CC(=O)O)C(=O)[C@H](CCCNC(=N)N)NS(=O)(=O)c1ccc2ccc(OC)cc2c1 [compound 35] | 0.5 µM |
| CCCCN(CC(=O)O)C(=O)[C@H](CCCNC(=N)N)NS(=O)(=O)c1ccc2ccc(OC)cc2c1 [compound 39] | 0.5 µM |
| COCCN(CC(=O)O)C(=O)[C@H](CCCNC(=N)N)NS(=O)(=O)c1cccc2c(OC)cccc12 [compound 43] | 2.5 µM |
| COc1cc2ccc(S(=O)(=O)N[C@@H](CCCNC(=N)N)C(=O)N(CCC(=O)O)Cc3ccccc3)cc2cc1OC [compound 52] | 10 µM |
| CCSCCN(CC(=O)O)C(=O)[C@H](CCCNC(=N)N)NS(=O)(=O)c1ccc2cc(OC)c(OC)cc2c1 [compound 69] | 5 µM |
| COc1cc2ccc(S(=O)(=O)N[C@@H](CCCNC(=N)N)C(=O)N(CC(=O)O)C3CCCCC3)cc2cc1OC [compound 111] | 5 µM |
| Cc1ccc2ccc(S(=O)(=O)N[C@@H](CCCNC(=N)N)C(=O)N(CC(=O)O)CC3CCCO3)cc2c1 (stereo partly shown) [compound 160] | 0.25 µM |
| Cc1ccc2ccc(S(=O)(=O)N[C@@H](CCCNC(=N)N)C(=O)N(CC(=O)O)CC3CCCO3)cc2c1 (stereo partly shown) [compound 161] | 0.2 µM |
| Cc1ccc2ccc(S(=O)(=O)N[C@@H](CCCNC(=N)N)C(=O)N3CCC(C(C)C)CC3C(=O)O)cc2c1 (stereo partly shown) [compound 175] | 0.1 µM |
| CC1CCN(C(=O)[C@H](CCCNC(=N)N)NS(=O)(=O)c2cccc3ccccc23)C(C(=O)O)C1 (stereo partly shown) [compound 179] | 1 µM |
| CN(C)c1cccc2c(S(=O)(=O)N[C@@H](CCCNC(=N)N)C(=O)N3CCCCC3C(=O)O)cccc12 (stereo partly shown) [compound 183] (Dansyl-Arg-[ξPip]-OH) | 0.35 µM |
| COc1cc2ccc(S(=O)(=O)N[C@@H](CCCNC(=N)N)C(=O)N3Cc4ccccc4CC3C(=O)O)cc2cc1OC (stereo partly shown) [compound 194] | 2 µM |
| COc1cc2ccc(S(=O)(=O)N[C@@H](CCCNC(=N)N)C(=O)N3Cc4ccccc4C3C(=O)O)cc2cc1OC (stereo partly shown) [compound 195] | 1.5 µM |

The remaining lines, values ahead:

| IC (2-fold clotting time) | Compound |
| --- | --- |
| 3 µM | COc1cc2ccc(S(=O)(=O)N[C@@H](CCCNC(=N)N)C(=O)N(CCc3ccccc3)CC(=O)O)cc2cc1OC [compound 54] |
| 50 µM | COc1cc2ccc(S(=O)(=O)N[C@@H](CCCNC(=N)N)C(=O)N(CCC(=O)O)CCc3ccccc3)cc2cc1OC [compound 56] |
| 6.5 µM | COc1ccc2cc(S(=O)(=O)N[C@@H](CCCNC(=N)N)C(=O)N(CC(=O)O)Cc3ccccc3)cc(OC)c2c1 [compound 58] |
| 50 µM | COc1ccc2cc(S(=O)(=O)N[C@@H](CCCNC(=N)N)C(=O)N(CCCC(=O)O)Cc3ccccc3)ccc2c1 [compound 60] |
| 15 µM | COc1ccc2cc(S(=O)(=O)N[C@@H](CCCNC(=N)N)C(=O)N(CCC(=O)O)Cc3ccccc3)ccc2c1 [compound 62] |
| 20 µM | COc1ccc2ccc(S(=O)(=O)N[C@@H](CCCNC(=N)N)C(=O)N(CCc3ccccc3)CC(=O)O)cc2c1 [compound 64] |
| 1 µM | COc1ccc2ccc(S(=O)(=O)N[C@@H](CCCNC(=N)N)C(=O)N(CCSC)CC(=O)O)cc2c1 [compound 67] |
| 5 µM | COc1cc2ccc(S(=O)(=O)N[C@@H](CCCNC(=N)N)C(=O)N3CCCCC3C(=O)O)cc2cc1OC (stereo partly shown) [compound 71] |
| 2 µM | CCCCCN(C(=O)[C@H](CCCNC(=N)N)NS(=O)(=O)c1ccc2cc(OC)c(OC)cc2c1)C(C)C(=O)O (stereo partly shown) [compound 118] |
| 2.5 µM | COc1cc2ccc(S(=O)(=O)N[C@@H](CCCNC(=N)N)C(=O)N(Cc3ccccc3)C(C)C(=O)O)cc2cc1OC (stereo partly shown) [compound 120] |
| 1.5 µM | COc1cc2ccc(S(=O)(=O)N[C@@H](CCCNC(=N)N)C(=O)N(CCc3ccccc3)C(C)C(=O)O)cc2cc1OC (stereo partly shown) [compound 122] |
| 4.5 µM | COc1ccc2cc(S(=O)(=O)N[C@@H](CCCNC(=N)N)C(=O)N(CC3CCCCC3)C(C)C(=O)O)cc(OC)c2c1 (stereo partly shown) [compound 126] |
| 5 µM | COCCN(C(=O)[C@H](CCCNC(=N)N)NS(=O)(=O)c1ccc2cc(OC)c(OC)cc2c1)C(C)C(=O)O (stereo partly shown) [compound 129] |
| 20 µM | CCCCN(CC(=O)O)C(=O)[C@H](CCCNC(=N)N)NS(=O)(=O)c1cccc2c1CCCC2 [compound 130] |
| 10 µM | COCCN(CC(=O)O)C(=O)[C@H](CCCNC(=N)N)NS(=O)(=O)c1cccc2c1CCCC2 [compound 132] |
| 30 µM | N=C(N)NCCC[C@H](NS(=O)(=O)c1ccc2c(c1)CCCC2)C(=O)N(CC(=O)O)Cc1ccccc1 [compound 133] |
| 0.3 µM | CCCCN(CC(=O)O)C(=O)[C@H](CCCNC(=N)N)NS(=O)(=O)c1ccc2ccc(C)cc2c1 [compound 143] |
| 0.2 µM | COCCN(CC(=O)O)C(=O)[C@H](CCCNC(=N)N)NS(=O)(=O)c1ccc2ccc(C)cc2c1 [compound 144] |

| IC (2-fold clotting time) | Compound |
| --- | --- |
| 14 µM | Cc1ccc2ccc(S(=O)(=O)N[C@@H](CCCNC(=N)N)C(=O)N(CC(=O)O)CC3CCCCC3)cc2c1 [compound 146] |
| 20 µM | COCCN(CC(=O)O)C(=O)[C@H](CCCNC(=N)N)NS(=O)(=O)c1cccc2ccc(C)cc12 [compound 151] |
| 10 µM | COCCN(CC(=O)O)C(=O)[C@H](CCCNC(=N)N)NS(=O)(=O)c1cccc2cc(C)c(C)cc12 [compound 152] |
| 4 µM | CCCCN(CC(=O)O)C(=O)[C@H](CCCNC(=N)N)NS(=O)(=O)c1cccc2c(N(C)C)cccc12 [compound 153] |
| 0.2 µM | COc1ccc2ccc(S(=O)(=O)N[C@@H](CCCNC(=N)N)C(=O)N(CC(=O)O)Cc3ccco3)cc2c1 [compound 162] |
| 0.15 µM | COc1ccc2ccc(S(=O)(=O)N[C@@H](CCCNC(=N)N)C(=O)N(CC(=O)O)CC3CCCO3)cc2c1 (stereo partly shown) [compound 164] |
| 0.2 µM | Cc1ccc2ccc(S(=O)(=O)N[C@@H](CCCNC(=N)N)C(=O)N3CCC(C)CC3C(=O)O)cc2c1 (stereo partly shown) [compound 173] |
| 0.5 µM | CC(C)C1CCN(C(=O)[C@H](CCCNC(=N)N)NS(=O)(=O)c2ccc3ccccc3c2)C(C(=O)O)C1 (stereo partly shown) [compound 181] |
| 5 µM | COc1cc2ccc(S(=O)(=O)N[C@@H](CCCNC(=N)N)C(=O)N3CCOCC3C(=O)O)cc2cc1OC (stereo partly shown) [compound 191] |
| 6.5 µM | CCOC(=O)CCN(CC(=O)O)C(=O)[C@H](CCCNC(=N)N)NS(=O)(=O)c1ccc2cc(OC)c(OC)cc2c1 [compound 196] |
| 2 µM | CCCCCCCCOC(=O)CN(CCOC)C(=O)[C@H](CCCNC(=N)N)NS(=O)(=O)c1ccc2cc(OC)c(OC)cc2c1 [compound 200] |
| 20 µM | COCCN(CC(=O)Oc1cccc(C)c1)C(=O)[C@H](CCCNC(=N)N)NS(=O)(=O)c1ccc2cc(OC)c(OC)cc2c1 [compound 202] |
| 30 µM | COCCN(CC(=O)Oc1ccc2c(c1)CCC2)C(=O)[C@H](CCCNC(=N)N)NS(=O)(=O)c1ccc2cc(OC)c(OC)cc2c1 [compound 203] |
| 4.5 µM | COc1ccc2ccc(S(=O)(=O)N[C@@H](CCCNC(=N)N)C(=O)N3CC[S+]([O-])CC3C(=O)O)cc2c1 (stereo partly shown) [compound 204] |
| 2.5 µM | COc1ccc2ccc(S(=O)(=O)N[C@@H](CCCNC(=N)N)C(=O)N3CCCCCC3C(=O)O)cc2c1 (stereo partly shown) [compound 205] |
| 55 µM | CCCC(C(=O)O)N(CC(=O)O)C(=O)[C@H](CCCNC(=N)N)NS(=O)(=O)c1ccc2cc(OC)c(OC)cc2c1 (stereo partly shown) [compound 207] |
| 2 µM | COc1cc2ccc(S(=O)(=O)N[C@@H](CCCNC(=N)N)C(=O)N(C)C(Cc3ccccc3)C(=O)O)cc2cc1OC (stereo partly shown) [compound 209] |
